# The NIST ThermoML archive (doi:10.1016/j.tca.2012.12.004)
# Numbers after ± are expanded uncertainties.
# Experiment: molar heat capacity at constant pressure; xn = mol fraction of the nth substance listed
# Conditions: 101 kPa, Crystal, Small (less than 1 g) adiabatic calorimetry, x1 = 0.7
structure (smiles),measurement,setting,value
[Ba+2].[F-].[F-] [barium difluoride] + [F][La]([F])[F],molar heat capacity at constant pressure,10 K,0.3566 ± 0.2 J/K/mol
same,molar heat capacity at constant pressure,15 K,1.198 ± 0.2 J/K/mol
same,molar heat capacity at constant pressure,20 K,2.757 ± 0.21 J/K/mol
same,molar heat capacity at constant pressure,25 K,4.992 ± 0.22 J/K/mol
same,molar heat capacity at constant pressure,30 K,7.683 ± 0.23 J/K/mol
same,molar heat capacity at constant pressure,35 K,10.6 ± 0.24 J/K/mol
same,molar heat capacity at constant pressure,40 K,13.58 ± 0.25 J/K/mol
same,molar heat capacity at constant pressure,45 K,16.57 ± 0.27 J/K/mol
same,molar heat capacity at constant pressure,50 K,19.51 ± 0.28 J/K/mol
same,molar heat capacity at constant pressure,60 K,25.25 ± 0.3 J/K/mol
same,molar heat capacity at constant pressure,70 K,30.71 ± 0.32 J/K/mol
same,molar heat capacity at constant pressure,80 K,35.83 ± 0.34 J/K/mol
same,molar heat capacity at constant pressure,90 K,40.57 ± 0.36 J/K/mol
same,molar heat capacity at constant pressure,100 K,44.9 ± 0.38 J/K/mol
same,molar heat capacity at constant pressure,110 K,48.81 ± 0.4 J/K/mol
same,molar heat capacity at constant pressure,120 K,52.33 ± 0.41 J/K/mol
same,molar heat capacity at constant pressure,130 K,55.47 ± 0.42 J/K/mol
same,molar heat capacity at constant pressure,140 K,58.27 ± 0.43 J/K/mol
same,molar heat capacity at constant pressure,150 K,60.76 ± 0.44 J/K/mol
same,molar heat capacity at constant pressure,160 K,62.98 ± 0.45 J/K/mol
same,molar heat capacity at constant pressure,170 K,64.95 ± 0.46 J/K/mol
same,molar heat capacity at constant pressure,180 K,66.7 ± 0.47 J/K/mol
same,molar heat capacity at constant pressure,190 K,68.28 ± 0.47 J/K/mol
same,molar heat capacity at constant pressure,200 K,69.68 ± 0.48 J/K/mol
same,molar heat capacity at constant pressure,210 K,70.94 ± 0.48 J/K/mol
same,molar heat capacity at constant pressure,220 K,72.07 ± 0.49 J/K/mol
same,molar heat capacity at constant pressure,230 K,73.09 ± 0.49 J/K/mol
same,molar heat capacity at constant pressure,240 K,74.02 ± 0.5 J/K/mol
same,molar heat capacity at constant pressure,250 K,74.85 ± 0.5 J/K/mol
same,molar heat capacity at constant pressure,260 K,75.6 ± 0.5 J/K/mol
same,molar heat capacity at constant pressure,270 K,76.29 ± 0.51 J/K/mol
same,molar heat capacity at constant pressure,280 K,76.91 ± 0.51 J/K/mol
same,molar heat capacity at constant pressure,290 K,77.48 ± 0.51 J/K/mol
same,molar heat capacity at constant pressure,298.15 K,77.91 ± 0.51 J/K/mol
same,molar heat capacity at constant pressure,300 K,78.01 ± 0.51 J/K/mol
same,molar heat capacity at constant pressure,310 K,78.48 ± 0.51 J/K/mol
same,molar heat capacity at constant pressure,320 K,78.93 ± 0.52 J/K/mol
same,molar heat capacity at constant pressure,330 K,79.33 ± 0.52 J/K/mol
same,molar heat capacity at constant pressure,340 K,79.7 ± 0.52 J/K/mol
